Measurements: ChEMBL document CHEMBL2429779, “Synthesis and anti-inflammatory activity of three nitro chalcones” (Bioorg Med Chem Lett, 2013)
Calls of active or inactive are those of the source. No cut-off for these calls is given here.

Experiments:
Rattus norvegicus [1] = assay: Antiinflammatory activity in Wistar rat assessed as protection against carrageenan-induced paw edema at 200 mg/kg, po after 2 to 7 hrs by pletismometric analysis relative to vehicle-treated control; assay type: functional, organism-based; set-up: dose 200 mg/kg
[2] = Solubility of the compound in water; assay type: physicochemical; details: buffer
[3] = Solubility of the compound in DMSO; assay type: physicochemical
Rattus norvegicus [4] = assay: Antiinflammatory activity in Wistar rat assessed as protection against carrageenan-induced paw edema at 200 mg/kg, ip measured after 3 to 7 hrs by pletismometric analysis relative to vehicle-treated control; assay type: functional, organism-based; set-up: dose 200 mg/kg
Rattus norvegicus [5] = assay: Antiinflammatory activity in Wistar rat assessed as protection against carrageenan-induced paw edema at 200 mg/kg, ip measured after 2 hrs by pletismometric analysis relative to vehicle-treated control; assay type: functional; details: route intraperitoneal
Rattus norvegicus [6] = assay: Antiinflammatory activity in Wistar rat assessed as protection against carrageenan-induced paw edema at 200 mg/kg, ip by pletismometric analysis; assay type: functional, organism-based; set-up: dose 200 mg/kg; details: TDE = time-dependent effect
Rattus norvegicus [7] = assay: Antiinflammatory activity in Wistar rat assessed as protection against carrageenan-induced paw edema at 200 mg/kg, po after 1 hr by pletismometric analysis relative to vehicle-treated control; assay type: functional
Rattus norvegicus [8] = assay: Antiinflammatory activity in Wistar rat assessed as protection against carrageenan-induced paw edema at 200 mg/kg, po after 2 hrs by pletismometric analysis relative to vehicle-treated control; assay type: functional
Rattus norvegicus [9] = assay: Antiinflammatory activity in Wistar rat assessed as protection against carrageenan-induced paw edema at 200 mg/kg, po by pletismometric analysis; assay type: functional, organism-based; set-up: dose 200 mg/kg; details: TDE = time-dependent effect
Rattus norvegicus [10] = assay: Antiinflammatory activity in Wistar rat assessed as protection against carrageenan-induced paw edema at 10 mg/kg, po after 3 to 7 hrs by pletismometric analysis relative to vehicle-treated control; assay type: functional
Rattus norvegicus [11] = assay: Antiinflammatory activity in Wistar rat assessed as protection against carrageenan-induced paw edema at 10 mg/kg, po after 2 hrs by pletismometric analysis relative to vehicle-treated control; assay type: functional
Rattus norvegicus [12] = assay: Antiinflammatory activity in Wistar rat assessed as protection against carrageenan-induced paw edema at 200 mg/kg, po after 7 hrs by pletismometric analysis relative to vehicle-treated control; assay type: functional
Rattus norvegicus [13] = assay: Antiinflammatory activity in Wistar rat assessed as protection against carrageenan-induced paw edema at 200 mg/kg, ip measured after 2 to 7 hrs by pletismometric analysis; assay type: functional, organism-based; set-up: dose 200 mg/kg
Rattus norvegicus [14] = assay: Antiinflammatory activity in Wistar rat assessed as protection against carrageenan-induced paw edema at 200 mg/kg, ip measured after 1 hr by pletismometric analysis relative to vehicle-treated control; assay type: functional; details: route intraperitoneal
Rattus norvegicus [15] = assay: Antiinflammatory activity in Wistar rat assessed as protection against carrageenan-induced paw edema at 200 mg/kg, po after 3 to 7 hrs by pletismometric analysis relative to vehicle-treated control; assay type: functional, organism-based; set-up: dose 200 mg/kg
Rattus norvegicus [16] = assay: Antiinflammatory activity in Wistar rat assessed as protection against carrageenan-induced paw edema at 200 mg/kg, ip measured after 2 to 7 hrs by pletismometric analysis relative to vehicle-treated control; assay type: functional; details: route intraperitoneal
Rattus norvegicus [17] = assay: Antiinflammatory activity in Wistar rat assessed as protection against carrageenan-induced paw edema at 200 mg/kg, po after 4 to 7 hrs by pletismometric analysis relative to vehicle-treated control; assay type: functional
Rattus norvegicus [18] = assay: Antiinflammatory activity in Wistar rat assessed as protection against carrageenan-induced paw edema at 200 mg/kg, po after 3 hrs by pletismometric analysis relative to vehicle-treated control; assay type: functional

Compound	Activity (Rattus norvegicus [1])	solubility [2]	solubility [3]	Activity (Rattus norvegicus [4])	%max (Rattus norvegicus [5])	Activity (Rattus norvegicus [6])	%max (Rattus norvegicus [7])	Activity (Rattus norvegicus [8])	Activity (Rattus norvegicus [9])	Activity (Rattus norvegicus [10])	%max (Rattus norvegicus [11])	Activity (Rattus norvegicus [12])	Activity (Rattus norvegicus [13])	%max (Rattus norvegicus [14])	%max (Rattus norvegicus [8])	Activity (Rattus norvegicus [15])	Activity (Rattus norvegicus [16])	Activity (Rattus norvegicus [17])	%max (Rattus norvegicus [18])
O=C(/C=C/c1ccccc1)c1ccc([N+](=O)[O-])cc1	Active	Insoluble	soluble	Active	43.2%	tde	38%	20%	tde										
Cc1cnc(NC(=O)C2=C(O)c3ccccc3S(=O)(=O)N2C)s1 [MELOXICAM]										50%	59.3%								
O=C(/C=C/c1ccccc1)c1cccc([N+](=O)[O-])c1		Insoluble	soluble			tde			tde			0%	Active	68%	31%	inactive			
O=C(/C=C/c1ccccc1)c1ccccc1[N+](=O)[O-]		Insoluble	soluble			tde			tde					58.2%			50%	30%	34.8%
